The source made the active and inactive calls. The rule behind the calls is not given here.
Key:
HepG2 [1] = experiment: Cytotoxicity against human HepG2 cells assessed as reduction in cell growth pretreated for 1 hr with NQO1 inhibitor, dicoumarol followed by incubation with compound for 48 hrs by MTT assay; format: functional
[2] = Selectivity index, ratio of GI50 for human L02 cells to GI50 for human HepG2 cells measured after 48 hrs by MTT assay; format: toxicity; conditions: L02 cells and HepG2 cells, read-out: RatioGI50
HepG2 [3] = experiment: Induction of apoptosis in human HepG2 cells assessed as necrotic cells at 1.1 uM incubated for 24 hrs by annexinV-FITC and PI staining based flow cytometry analysis (reference value: 0.35 %); format: functional
HepG2 [4] = experiment: Induction of apoptosis in human HepG2 cells assessed as late apoptotic cells at 2.2 uM incubated for 24 hrs by annexinV-FITC and PI staining based flow cytometry analysis (reference value: 2.27 %); format: functional
HepG2 [5] = experiment: Induction of ROS generation in human HepG2 cells at 5 uM incubated for 5 hrs in presence of dicoumarol by DCFH-DA staining based flow cytometry analysis; format: functional, cell-based
[6] = molecular target: NAD(P)H dehydrogenase [quinone] 1 (Homo sapiens) (UniProt P15559); experiment: Substrate activity at recombinant human C-terminal His-tagged NQO1 (1 to 274 residues) expressed in Escherichia coli assessed as enzyme activity by measuring oxidation of NADPH incubated for 5 mins measured per micromol of enzyme every 5 sec for 1 mins by UV-visible spectrophotometry
HepG2 [7] = experiment: Induction of cell cycle arrest in human HepG2 cells assessed as accumulation at S/G2 phase at 3 uM incubated for 24 hrs by PI staining based flow cytometry analysis (reference value: 35.2 %); format: functional
HepG2 [8] = experiment: Induction of apoptosis in human HepG2 cells assessed as necrotic cells at 2.2 uM incubated for 24 hrs by annexinV-FITC and PI staining based flow cytometry analysis (reference value: 0.35 %); format: functional
[9] = Selectivity index, ratio of GI50 for human HepG2 cells pretreated for 1 hr with ROS scavenger, N-acetyl cysteine followed by incubation with compound for 48 hrs to GI50 for human HepG2 cells measured after 48 hrs by MTT assay; format: functional
HepG2 [10] = experiment: Induction of apoptosis in human HepG2 cells incubated for 24 hrs by annexinV-FITC and PI staining based flow cytometry analysis; format: functional, cell-based; conditions: dose 1.1-4.4 µM
[11] = Cytotoxicity against human L02 cells assessed as reduction in cell growth incubated for 48 hrs by MTT assay; format: cell-based
[12] = molecular target: NAD(P)H dehydrogenase [quinone] 1 (Homo sapiens) (UniProt P15559); experiment: Substrate activity at recombinant human C-terminal His-tagged NQO1 (1 to 274 residues) expressed in Escherichia coli assessed as enzyme activity by measuring oxidation of NADPH incubated for 5 mins measured every 5 sec for 1 mins by UV-visible spectrophotometry relative to beta-lapachone
HepG2 [13] = experiment: Induction of apoptosis in human HepG2 cells assessed as late apoptotic cells at 4.4 uM incubated for 24 hrs by annexinV-FITC and PI staining based flow cytometry analysis (reference value: 2.27 %); format: functional
HepG2 [14] = experiment: Induction of ROS generation in human HepG2 cells at 5 uM by DCFH-DA staining based flow cytometry analysis; format: functional, cell-based; conditions: time 3-5 hrs, TDE = time-dependent effect
[15] = Selectivity index, ratio of GI50 for human A549 cells pretreated for 1 hr with NQO1 inhibitor, dicoumarol followed by incubation with compound for 48 hrs to GI50 for human A549 cells measured after 48 hrs by MTT assay; format: functional
HepG2 [16] = experiment: Induction of apoptosis in human HepG2 cells assessed as late apoptotic cells at 1.1 uM incubated for 24 hrs by annexinV-FITC and PI staining based flow cytometry analysis (reference value: 2.27 %); format: functional
HepG2 [17] = experiment: Induction of apoptosis in human HepG2 cells assessed as necrotic cells at 4.4 uM incubated for 24 hrs by annexinV-FITC and PI staining based flow cytometry analysis (reference value: 0.35 %); format: functional
HepG2 [18] = experiment: Cytotoxicity against human HepG2 cells assessed as reduction in cell growth pretreated for 1 hr with ROS scavenger, N-acetyl cysteine followed by incubation with compound for 48 hrs by MTT assay; format: functional
HepG2 [19] = experiment: Induction of mitochondrial membrane potential loss in human HepG2 cells at 2.2 uM incubated for 48 hrs by JC-1 staining based flow cytometry analysis (reference value: 2.06 %); format: functional
HepG2 [20] = experiment: Induction of apoptosis in human HepG2 cells assessed as early apoptotic cells at 2.2 uM incubated for 24 hrs by annexinV-FITC and PI staining based flow cytometry analysis (reference value: 2.65 %); format: functional
HepG2 [21] = experiment: Induction of apoptosis in human HepG2 cells assessed as viable cells at 2.2 uM incubated for 24 hrs by annexinV-FITC and PI staining based flow cytometry analysis (reference value: 94.73 %); format: functional; conditions: read-out: Activity
HepG2 [22] = experiment: Induction of apoptosis in human HepG2 cells assessed as early apoptotic cells at 1.1 uM incubated for 24 hrs by annexinV-FITC and PI staining based flow cytometry analysis (reference value: 2.65 %); format: functional
HepG2 [23] = experiment: Induction of apoptosis in human HepG2 cells assessed as viable cells at 4.4 uM incubated for 24 hrs by annexinV-FITC and PI staining based flow cytometry analysis (reference value: 94.73 %); format: functional; conditions: read-out: Activity
A549 [24] = experiment: Cytotoxicity against human A549 cells assessed as reduction in cell growth pretreated for 1 hr with ROS scavenger, N-acetyl cysteine followed by incubation with compound for 48 hrs by MTT assay; format: functional
HepG2 [25] = experiment: Induction of apoptosis in human HepG2 cells assessed as early apoptotic cells at 4.4 uM incubated for 24 hrs by annexinV-FITC and PI staining based flow cytometry analysis (reference value: 2.65 %); format: functional
HepG2 [26] = experiment: Antitumor activity against human HepG2 cells xenografted in athymic nude mouse assessed as inhibition of tumor growth at 10 mg/kg, iv administered once every 2 days for 19 days by caliper analysis relative to control; format: functional; conditions: 456 h, time 19 day
[27] = Selectivity index, ratio of GI50 for human HepG2 cells pretreated for 1 hr with NQO1 inhibitor, dicoumarol followed by incubation with compound for 48 hrs to GI50 for human HepG2 cells measured after 48 hrs by MTT assay; format: functional
HepG2 [28] = experiment: Induction of mitochondrial membrane potential loss in human HepG2 cells at 1.1 uM incubated for 48 hrs by JC-1 staining based flow cytometry analysis (reference value: 2.06 %); format: functional
[29] = molecular target: NAD(P)H dehydrogenase [quinone] 1 (Homo sapiens) (UniProt P15559); experiment: Activation of recombinant human C-terminal His-tagged NQO1 (1 to 274 residues) expressed in Escherichia coli assessed as cytochrome c reduction using menadione as substrate in presence of NADPH by spectrophotometry; conditions: filed as activator, dose 12.5-50 µM
HepG2 [30] = experiment: Induction of apoptosis in human HepG2 cells assessed as viable cells at 2.2 uM incubated for 24 hrs in presence of dicoumarol by annexinV-FITC and PI staining based flow cytometry analysis (reference value: 94.73 %); format: functional; conditions: read-out: Activity
HepG2 [31] = experiment: Cytotoxicity against human HepG2 cells assessed as reduction in cell growth incubated for 48 hrs by MTT assay; format: functional
A549 [32] = experiment: Cytotoxicity against human A549 cells assessed as reduction in cell growth pretreated for 1 hr with NQO1 inhibitor, dicoumarol followed by incubation with compound for 48 hrs by MTT assay; format: functional

SMILES: COc1ccc(C2CC(=O)NC3=C2C(=O)C(=O)c2ccccc23)cc1O (configuration not stated)
- GI50 (HepG2 [1]): 4.93 µM
- selectivity ratio at 48 h [2]: 2
- Activity (HepG2 [3]): 0.77%
- Activity (HepG2 [4]): 12.2%
- Activity (HepG2 [5]): inactive
- Activity [6]: 2770 µmol/min
- Activity (HepG2 [7]): 41.4%
- Activity (HepG2 [8]): 0.93%
- RatioGI50 [9]: 2
- Activity (HepG2 [10]): Dose-dependent effect
- GI50 at 48 h [11]: 4.36 µM
- fold change (FC) [12]: > 2
- Activity (HepG2 [13]): 17.46%
- Activity (HepG2 [14]): Tde
- RatioGI50 [15]: 2
- Activity (HepG2 [16]): 8.9%
- Activity (HepG2 [17]): 1.07%
- GI50 (HepG2 [18]): 5.65 µM
- Activity (HepG2 [19]): 11.03%
- Activity (HepG2 [20]): 10.85%
- viability at 2.2 µM (HepG2 [21]): 76%
- Activity (HepG2 [22]): 7.92%
- viability at 4.4 µM (HepG2 [23]): 66.5%
- GI50 (A549 [24]): 5.48 µM
- Activity (HepG2 [25]): 14.96%
- inhibition in vivo at 10 mg/kg (HepG2 [26]): 27.2%
- RatioGI50 [27]: 2
- Activity (HepG2 [28]): 7.42%
- Activity [29]: Dose-dependent effect
- viability at 2.2 µM (HepG2 [30]): 81.6%
- GI50 (HepG2 [31]): 2230 nM
- GI50 (A549 [32]): 5.3 µM
